The record followed here is ChEMBL document CHEMBL5252554, “Stereodivergent Hydroxylation of Berkeleylactones by Penicillium turbatum” (J Nat Prod, 2023).

In one experiment the test system is Saccharomyces cerevisiae. As to the kind of experiment: Antifungal activity against Saccharomyces cerevisiae ATCC 9763 assessed as fungal growth inhibition measured after 48 hrs by bromocresol green staining based method. It counts as functional.
For a further experiment, the system named is Staphylococcus aureus. As to the kind of experiment: Antibacterial activity against Staphylococcus aureus ATCC 25923 assessed as bacterial growth inhibition measured after 48 hrs by resazurin dye based assay. The format is functional. (The colour change of resazurin is a common sign of viable cells or microbes.)
In another experiment the test system is Giardia intestinalis. In words: Antiprotozoal activity against Giardia duodenalis 713 assessed as protozoal growth inhibition measured after 96 hrs under anaerobic conditions. The format is functional.
The nature of experiment [1]: Antiproliferative activity against mouse NS-1 cells assessed as cell growth inhibition measured after 72 hrs by resazurin dye based assay. It counts as functional. The conditions noted are these: for IC50: NS1, 72 h.
In the next experiment the test system is Bacillus subtilis. As to the kind of experiment: Antibacterial activity against Bacillus subtilis ATCC 6633 assessed as bacterial growth inhibition measured after 48 hrs by resazurin dye based assay. The format is functional.
The subject of the next experiment is Escherichia coli. As to the kind of experiment: Antibacterial activity against Escherichia coli ATCC 25922 assessed as bacterial growth inhibition measured after 48 hrs by resazurin dye based assay. It counts as functional, organism-based.

≈ marks a conversion by molar mass, not a printed value.

In the case of `C[C@@H]1[C@H](O)[C@@H](C)/C=C/C=C/C=C/C=C/C=C/C=C/C=C/[C@H](O[C@@H]2O[C@H](C)[C@@H](O)[C@H](N)[C@@H]2O)C[C@@H]2O[C@](O)(C[C@@H](O)C[C@@H](O)[C@H](O)CC[C@@H](O)C[C@@H](O)CC(=O)O[C@H]1C)C[C@H](O)[C@H]2C(=O)O` [AMPHOTERICIN B], the MIC (as a rule, the smallest concentration in the dilution series that meets the test's criterion for growth inhibition) in the experiment on Saccharomyces cerevisiae stood at 0.3 µM (≈ 0.277 µg/mL).

With `C[C@@H]1C[C@@H](O)CCCCCCC[C@H](O)[C@H](O)/C=C/C(=O)O1`, the MIC in the experiment on Staphylococcus aureus stood at 50 µg/mL. Also, the LD99 with Giardia intestinalis was determined as 50 µg/mL. Besides, in experiment [1], the half-inhibitory concentration (IC50) (as a rule, the point on the concentration scale where inhibition reaches its midpoint) was found to be 32 µM.

On to `COC(=O)CCC(=O)O[C@H]1CCCCCCCCC[C@@H](C)OC(=O)/C=C/[C@H]1O`, for which the MIC in the experiment on Staphylococcus aureus was determined as 25 µg/mL; in the experiment with Bacillus subtilis, 12.5 µg/mL. The IC50 in experiment [1] turned out to be 5.9 µM.

Turning to GENTAMICIN, the MIC with Escherichia coli came to 1.7 µM; in the experiment with Staphylococcus aureus, 0.8 µM; with Bacillus subtilis, 0.8 µM.

Consider `CO[C@@]12[C@H](COC(N)=O)C3=C(C(=O)C(C)=C(N)C3=O)N1C[C@@H]1N[C@@H]12` [MITOMYCIN], for which, in experiment [1] (time 72 hrs), the MIC was 0.93 µM (≈ 0.311 µg/mL).

Consider `C[C@@H]1CCCCCCCCC[C@H](OC(=O)CCC(=O)O)C(=O)/C=C/C(=O)O1`, for which the MIC in the experiment with Staphylococcus aureus came out at 0.4 µg/mL. The IC50 in experiment [1] came out at 3.1 µM.
